Measurements reported in the NIST ThermoML archive (doi:10.1021/je900596d).

Conditions: 283.17 K, Liquid, Vibrating tube method

FC(F)=C(F)C(F)(F)F [hexafluoropropene]
Conditions | mass density [kg/m3]
6464.6 kPa | 1420.83
6531.5 kPa | 1421.22
6599.8 kPa | 1421.62
6668.2 kPa | 1422.01
6734.8 kPa | 1422.36
6802 kPa | 1422.82
6878.8 kPa | 1423.17
6945.1 kPa | 1423.6
7018.8 kPa | 1423.92
7085.3 kPa | 1424.29
7154.4 kPa | 1424.62
7220.3 kPa | 1425.09
7293 kPa | 1425.48
7359.6 kPa | 1425.9
7428.2 kPa | 1426.22
7493.3 kPa | 1426.61
7562.9 kPa | 1426.95
7634.7 kPa | 1427.34
7780.3 kPa | 1428.05
7854.7 kPa | 1428.44
7922.9 kPa | 1428.82
7991.9 kPa | 1429.21
8053 kPa | 1429.55
8093.3 kPa | 1429.79
8134.7 kPa | 1429.94
8175.7 kPa | 1430.23
8222.2 kPa | 1430.51
8262.6 kPa | 1430.66
8310.9 kPa | 1430.87
8353.2 kPa | 1431.08
8393.4 kPa | 1431.32
8434 kPa | 1431.55
8474.2 kPa | 1431.73
8517.4 kPa | 1432.02
8563.4 kPa | 1432.23
8609.7 kPa | 1432.53
8651.7 kPa | 1432.69
8693.8 kPa | 1432.88
8735.7 kPa | 1433.12
8779.9 kPa | 1433.38
8821.1 kPa | 1433.52
8871.9 kPa | 1433.93
8912.3 kPa | 1434
8953.6 kPa | 1434.33
8996.5 kPa | 1434.45
9044.1 kPa | 1434.75
9090.4 kPa | 1435.02
9132.2 kPa | 1435.25
9176.2 kPa | 1435.35
9217 kPa | 1435.66
9261 kPa | 1435.85
9303.9 kPa | 1436.08
9347.1 kPa | 1436.32
9392.3 kPa | 1436.51
9439 kPa | 1436.78
9480.9 kPa | 1436.91
9522.3 kPa | 1437.19
9569.5 kPa | 1437.37
9612.2 kPa | 1437.57
9656.4 kPa | 1437.81
9696.9 kPa | 1438.08
9737.5 kPa | 1438.29
9778 kPa | 1438.42
9820 kPa | 1438.63
9860.9 kPa | 1438.96
9908.7 kPa | 1439.08
